Publication PMC7291858, “An Enhanced Variant Designed From DLP4 Cationic Peptide Against Staphylococcus aureus CVCC 546” (Frontiers in Microbiology, 2020)
Peptide text beside a SMILES is read from it.

Key:
[1] = system: Staphylococcus aureus CVCC 546; assay: microbe, parasite or virus in culture; format: cell-based; settings: Table 1; – = no activity
Procedure: (§1) The minimal inhibitory concentration (MIC) was evaluated by a microtiter plate assay ([Wiegand et al., 2008]). Serial 2-fold dilutions of test peptides were placed into a 96-well plate containing identical bacterial inoculum and incubated at 37°C for 16∼20 h. Vancomycin was used as antibiotic control. The MIC value was defined as the lowest peptide concentration where no visible growth occurred. All tests were made in triplicate.

S. aureus ATCC 43300 = format: cell-based, Staphylococcus aureus; settings: microtiter, serial 2-fold dilutions, 37°C, 16∼20 h, triplicate; – = no activity
Procedure: as §1

Compound	MIC [1]	A1 (MIC against S. aureus ATCC 43300) (S. aureus ATCC 43300)
CC[C@H](C)[C@@H]1NC(=O)[C@@H]2CSSC[C@@H](C(=O)N[C@@H](CCCNC(=N)N)C(=O)N[C@@H](CCCCN)C(=O)O)NC(=O)[C@H](CC(N)=O)NC(=O)[C@@H]3CSSC[C@H](NC(=O)[C@H](C)NC(=O)[C@H](C)NC(=O)[C@H](Cc4c[nH]cn4)NC(=O)CNC(=O)[C@H](C(C)C)NC(=O)[C@H](CCCCN)NC(=O)[C@H](Cc4ccccc4)NC(=O)[C@@H]4CCCN4C(=O)[C@H]([C@@H](C)O)NC(=O)[C@H](CC(C)C)NC(=O)[C@H](CC(C)C)NC(=O)[C@H](CC(=O)O)NC(=O)[C@@H](NC(=O)[C@@H](NC(=O)[C@H](C)N)[C@@H](C)O)CSSC[C@H](NC(=O)[C@H](Cc4c[nH]c5ccccc45)NC(=O)CNC(=O)CNC(=O)[C@H](CCCNC(=N)N)NC(=O)[C@H](CCCCN)NC(=O)CNC(=O)[C@H](CCCNC(=N)N)NC(=O)[C@H](C)NC1=O)C(=O)N[C@@H](CC(=O)O)C(=O)N[C@@H](CCCCN)C(=O)N[C@@H](CCCNC(=N)N)C(=O)N[C@@H](C)C(=O)N[C@@H](C(C)C)C(=O)N3)C(=O)N[C@@H](C)C(=O)N[C@@H](C)C(=O)N[C@@H](Cc1c[nH]cn1)C(=O)N2 [ID6] (HELM PEPTIDE1{A.T.C.D.L.L.T.P.F.K.V.G.H.A.A.C.A.A.H.C.I.A.R.G.K.R.G.G.W.C.D.K.R.A.V.C.N.C.R.K}$PEPTIDE1,PEPTIDE1,3:R3-30:R3|PEPTIDE1,PEPTIDE1,16:R3-36:R3|PEPTIDE1,PEPTIDE1,20:R3-38:R3$$$V2.0; N-terminus and C-terminus assumed; bridges inferred)	16	8 µg/mL
CC(C)C[C@@H]1NC(=O)[C@@H]2CSSC[C@@H](C(=O)N[C@@H](CCCNC(=N)N)C(=O)N[C@@H](CCCCN)C(=O)O)NC(=O)[C@H](CC(N)=O)NC(=O)[C@@H]3CSSC[C@H](NC(=O)[C@H](C)NC(=O)[C@H](C)NC(=O)[C@H](Cc4c[nH]cn4)NC(=O)CNC(=O)[C@H](C(C)C)NC(=O)[C@H](CCCCN)NC(=O)[C@H](Cc4ccccc4)NC(=O)[C@@H]4CCCN4C(=O)[C@H](CO)NC(=O)[C@H](CC(C)C)NC(=O)[C@H](CC(C)C)NC(=O)[C@H](CC(=O)O)NC(=O)[C@@H](NC(=O)[C@@H](NC(=O)[C@H](C)N)[C@@H](C)O)CSSC[C@H](NC(=O)[C@H](Cc4c[nH]c5ccccc45)NC(=O)CNC(=O)CNC(=O)[C@H](CCCNC(=N)N)NC(=O)[C@H](CCCCN)NC(=O)CNC(=O)[C@H](CCCNC(=N)N)NC(=O)[C@H](C)NC1=O)C(=O)N[C@@H](CC(=O)O)C(=O)N[C@@H](CCCCN)C(=O)N[C@@H](CCCNC(=N)N)C(=O)N[C@@H](C)C(=O)N[C@@H](C(C)C)C(=O)N3)C(=O)N[C@@H](C)C(=O)N[C@@H](C)C(=O)N[C@@H](Cc1c[nH]cn1)C(=O)N2 [ID29] (HELM PEPTIDE1{A.T.C.D.L.L.S.P.F.K.V.G.H.A.A.C.A.A.H.C.L.A.R.G.K.R.G.G.W.C.D.K.R.A.V.C.N.C.R.K}$PEPTIDE1,PEPTIDE1,3:R3-30:R3|PEPTIDE1,PEPTIDE1,16:R3-36:R3|PEPTIDE1,PEPTIDE1,20:R3-38:R3$$$V2.0; N-terminus and C-terminus assumed; bridges inferred)	128	64 µg/mL
CC[C@H](C)[C@@H]1NC(=O)[C@@H]2CSSC[C@@H](C(=O)N[C@@H](CCCNC(=N)N)C(=O)N[C@@H](CCCCN)C(=O)O)NC(=O)[C@H](CC(N)=O)NC(=O)[C@@H]3CSSC[C@H](NC(=O)[C@H](C)NC(=O)[C@H](C)NC(=O)[C@H](Cc4c[nH]cn4)NC(=O)CNC(=O)[C@H](C(C)C)NC(=O)[C@H](CCCCN)NC(=O)[C@H](Cc4ccccc4)NC(=O)[C@@H]4CCCN4C(=O)[C@H](CO)NC(=O)[C@H](CC(C)C)NC(=O)[C@H]([C@@H](C)CC)NC(=O)[C@H](CC(=O)O)NC(=O)[C@@H](NC(=O)[C@@H](NC(=O)[C@H](C)N)[C@@H](C)O)CSSC[C@H](NC(=O)[C@H](Cc4c[nH]c5ccccc45)NC(=O)CNC(=O)CNC(=O)[C@H](CCCNC(=N)N)NC(=O)[C@H](CCCCN)NC(=O)CNC(=O)[C@H](CCCNC(=N)N)NC(=O)[C@H](C)NC1=O)C(=O)N[C@@H](CC(=O)O)C(=O)N[C@@H](CCCCN)C(=O)N[C@@H](CCCNC(=N)N)C(=O)N[C@@H](C)C(=O)N[C@@H](C(C)C)C(=O)N3)C(=O)N[C@@H](C)C(=O)N[C@@H](C)C(=O)N[C@@H](Cc1c[nH]cn1)C(=O)N2 [ID4] (HELM PEPTIDE1{A.T.C.D.I.L.S.P.F.K.V.G.H.A.A.C.A.A.H.C.I.A.R.G.K.R.G.G.W.C.D.K.R.A.V.C.N.C.R.K}$PEPTIDE1,PEPTIDE1,3:R3-30:R3|PEPTIDE1,PEPTIDE1,16:R3-36:R3|PEPTIDE1,PEPTIDE1,20:R3-38:R3$$$V2.0; N-terminus and C-terminus assumed; bridges inferred)		32 µg/mL
CC[C@H](C)[C@@H]1NC(=O)[C@@H]2CSSC[C@@H](C(=O)N[C@@H](CCCNC(=N)N)C(=O)N[C@@H](CC(N)=O)C(=O)O)NC(=O)[C@H](CC(N)=O)NC(=O)[C@@H]3CSSC[C@H](NC(=O)[C@H](C)NC(=O)[C@H](C)NC(=O)[C@H](Cc4c[nH]cn4)NC(=O)CNC(=O)[C@H](C(C)C)NC(=O)[C@H](CCCCN)NC(=O)[C@H](Cc4ccccc4)NC(=O)[C@@H]4CCCN4C(=O)[C@H](CO)NC(=O)[C@H](CC(C)C)NC(=O)[C@H](CC(C)C)NC(=O)[C@H](CC(=O)O)NC(=O)[C@@H](NC(=O)[C@@H](NC(=O)[C@H](C)N)[C@@H](C)O)CSSC[C@H](NC(=O)[C@H](Cc4c[nH]c5ccccc45)NC(=O)CNC(=O)CNC(=O)[C@H](CCCNC(=N)N)NC(=O)[C@H](CCCCN)NC(=O)CNC(=O)[C@H](CCCNC(=N)N)NC(=O)[C@H](C)NC1=O)C(=O)N[C@@H](CC(=O)O)C(=O)NCC(=O)N[C@@H](CCCNC(=N)N)C(=O)N[C@@H](C)C(=O)N[C@@H](C(C)C)C(=O)N3)C(=O)N[C@@H](C)C(=O)N[C@@H](C)C(=O)N[C@@H](Cc1c[nH]cn1)C(=O)N2 [ID20] (HELM PEPTIDE1{A.T.C.D.L.L.S.P.F.K.V.G.H.A.A.C.A.A.H.C.I.A.R.G.K.R.G.G.W.C.D.G.R.A.V.C.N.C.R.N}$PEPTIDE1,PEPTIDE1,3:R3-30:R3|PEPTIDE1,PEPTIDE1,16:R3-36:R3|PEPTIDE1,PEPTIDE1,20:R3-38:R3$$$V2.0; N-terminus and C-terminus assumed; bridges inferred)		16 µg/mL
